Like-named read-outs stand apart in the source and are kept apart here.
What was measured:
[1] = test system: isolated rat liver mitochondria; experiment: Mitochondrial oxygen consumption (glutamate/malate or succinate driven, state 4 and state 3); format: biochemical; details: DMSO treated samples set as 1; for State 3 respiration driven by succinate at 10XCmax: key: 0 indicates that the drug had no effects (negative); for State 3 respiration driven by succinate at 1XCmax: key: 0 indicates that the drug had no effects (negative)
Summary of the method: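 Rat liver mitochondria (1 mg/ml protein) exposed 5 min to kinase inhibitors in 0.1% DMSO, then O2 consumption measured by Clark-type electrode with glutamate/malate or succinate (state 4), ADP added after 3 min (state 3). Rates normalized to 0.1% DMSO controls set to 1.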

[2] = test system: isolated rat liver mitochondria; experiment: Mitochondrial swelling (absorbance at 535 nm); format: biochemical; details: difference in signal between KI and DMSO treated samples at the end of experiments; for Swelling 5XCmax: key: 0 indicates that the drug had no effects (negative)
[3] = ref product labeling, cited from earlier work
[4] = test system: isolated rat liver mitochondria; experiment: Mitochondrial ROS production (CM-H2DCFDA); details: DMSO treated samples set as 1
[5] = test system: RCC III; experiment: RCC III activity in submitochondrial particles; format: biochemical, rat; parameters: key to RCC III at 100XCmax: activity relative to DMSO-treated controls (control set as 1 = 100%); details: 100XCmax
Summary of the method: (§1)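 First, submitochondrial particles (1 mg/ml) are incubated with inhibitor for 15 min. Next, complex activities are followed spectrophotometrically, with RCC I taken as the difference between buffers lacking and containing rotenone. Finally, activities are expressed relative to DMSO controls set at 1.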

[6] = test system: RCC IV; experiment: RCC IV activity in submitochondrial particles; format: biochemical, rat; parameters: key to RCC IV at 50XCmax / RCC IV at 100XCmax: activity relative to DMSO-treated controls (control set as 1 = 100%); details: 50XCmax, in %
Summary of the method: as §1

[7] = test system: isolated rat liver mitochondria; details: positive control alamethicin treated samples
[8] = cited from earlier work
[9] = test system: isolated rat liver mitochondria; experiment: Mitochondrial inner membrane potential (MMP), Rhodamine 123; format: biochemical; details: difference in signal between KI and DMSO treated samples at the end of experiments
Excerpt: Fig. 3 KI effects on mitochondrial inner membrane potential (MMP). […] In a, c, data are means and standard derivations from three separate experiments. *p < 0.05 as compared to DMSO-treated samples at the end of experiments. In b, data are means of two independent experiments

[10] = relative to DMSO treated samples

O=C(c1ccc(F)c(F)c1Nc1ccc(I)cc1F)N1CC(O)([C@@H]2CCCCN2)C1 [Cobimetinib]
State 3 respiration driven by glutamate/malate at 1XCmax [1]: 0
State 3 respiration driven by succinate at 1XCmax [1]: 0
State 4 respiration driven by glutamate/malate at 1XCmax [1]: 0
State 4 respiration driven by succinate at 1XCmax [1]: 0
State 3 respiration driven by glutamate/malate at 2.5XCmax [1]: 0
State 3 respiration driven by succinate at 2.5XCmax [1]: 0
State 4 respiration driven by glutamate/malate at 2.5XCmax [1]: 0
State 4 respiration driven by succinate at 2.5XCmax [1]: 0
State 3 respiration driven by glutamate/malate at 5XCmax [1]: 0
State 3 respiration driven by succinate at 5XCmax [1]: 0
State 4 respiration driven by glutamate/malate at 5XCmax [1]: 0
State 4 respiration driven by succinate at 5XCmax [1]: 0
State 3 respiration driven by glutamate/malate at 10XCmax [1]: 0
State 3 respiration driven by succinate at 10XCmax [1]: 0
State 4 respiration driven by glutamate/malate at 10XCmax [1]: 0
State 4 respiration driven by succinate at 10XCmax [1]: 0
State 3 respiration driven by glutamate/malate at 20XCmax [1]: 0
State 3 respiration driven by succinate at 20XCmax [1]: 0
State 4 respiration driven by glutamate/malate at 20XCmax [1]: 0
State 4 respiration driven by succinate at 20XCmax [1]: 0
State 3 respiration driven by glutamate/malate at 30XCmax [1]: 0
State 3 respiration driven by succinate at 30XCmax [1]: 0
State 4 respiration driven by glutamate/malate at 30XCmax [1]: 0
State 4 respiration driven by succinate at 30XCmax [1]: 0
State 3 respiration driven by glutamate/malate at 50XCmax [1]: 0
State 3 respiration driven by succinate at 50XCmax [1]: 0
State 4 respiration driven by glutamate/malate at 50XCmax [1]: 0
State 4 respiration driven by succinate at 50XCmax [1]: 0
State 3 respiration driven by glutamate/malate at 100XCmax [1]: 0
State 3 respiration driven by succinate at 100XCmax [1]: 0
State 4 respiration driven by glutamate/malate at 100XCmax [1]: 0
State 4 respiration driven by succinate at 100XCmax [1]: 0
Swelling 1XCmax [2]: 0
Swelling 2.5XCmax [2]: 0
Swelling 5XCmax [2]: 0
Swelling 10XCmax [2]: 0
Swelling 20XCmax [2]: 0
Swelling 30XCmax [2]: 0
Swelling 50XCmax [2]: 0
Swelling 100XCmax [2]: 0
Cmax ([3]; read-out: Cmax at µM, human therapeutic maximal blood concentration): 0.51 µM
ROS measured by CM-H2DCFDA at 1XCmax [4]: 0
ROS measured by CM-H2DCFDA at 2.5XCmax [4]: 0
ROS measured by CM-H2DCFDA at 5XCmax [4]: 0
ROS measured by CM-H2DCFDA at 10XCmax [4]: 0
ROS measured by CM-H2DCFDA at 20XCmax [4]: 0
ROS measured by CM-H2DCFDA at 30XCmax [4]: 0
ROS measured by CM-H2DCFDA at 50XCmax [4]: 0
ROS measured by CM-H2DCFDA at 100XCmax [4]: 0
RCC III at 100XCmax [5]: 0
RCC IV at 50XCmax ([6]; DMSO treated samples set as 1): 0
Cytochrome c release 1XCmax [7]: 0
Cytochrome c release 2.5XCmax [7]: 0
Cytochrome c release 5XCmax [7]: 0
Cytochrome c release 10XCmax [7]: 0
Cytochrome c release 20XCmax [7]: 0
Cytochrome c release 30XCmax [7]: 0
Cytochrome c release 50XCmax [7]: 0
Cytochrome c release 100XCmax [7]: 0
DILI potential (based on labeling) ([8]; 1 DILI positive, 0 negative according to labeling, ref product labeling): 1
Labeling for DILI ([8]; BBW: black box warning, W&P: Warnings and Precautions, ref product labeling): W&P: ALT↑
labeling for DILI ([8]; W&P warnings and precautions, BBW black box warnings, ref FDA product labeling): W&P: ALT↑/monitoring
DILI potential (based on labeling) ([8]; ref FDA product labeling): 1
MMP measured by Rhodamine 123 at 1XCmax [9]: 0
MMP measured by Rhodamine 123 at 2.5XCmax [9]: 0
MMP measured by Rhodamine 123 at 5XCmax [9]: 0
MMP measured by Rhodamine 123 at 10XCmax [9]: 0
MMP measured by Rhodamine 123 at 20XCmax [9]: 0
MMP measured by Rhodamine 123 at 30XCmax [9]: 0
MMP measured by Rhodamine 123 at 50XCmax [9]: 0
MMP measured by Rhodamine 123 at 100XCmax [9]: 0

CCN(CC)CCNC(=O)c1c(C)[nH]c(/C=C2\C(=O)Nc3ccc(F)cc32)c1C [sunitinib malate]
State 3 respiration driven by glutamate/malate at 1XCmax [1]: 0
State 3 respiration driven by succinate at 1XCmax [1]: 0
State 4 respiration driven by glutamate/malate at 1XCmax [1]: 0
State 4 respiration driven by succinate at 1XCmax [1]: 0
State 3 respiration driven by glutamate/malate at 2.5XCmax [1]: 0
State 3 respiration driven by succinate at 2.5XCmax [1]: 0
State 4 respiration driven by glutamate/malate at 2.5XCmax [1]: 0
State 4 respiration driven by succinate at 2.5XCmax [1]: 0
State 3 respiration driven by glutamate/malate at 5XCmax [1]: 0
State 3 respiration driven by succinate at 5XCmax [1]: 0
State 4 respiration driven by glutamate/malate at 5XCmax [1]: 0
State 4 respiration driven by succinate at 5XCmax [1]: 0
State 3 respiration driven by glutamate/malate at 10XCmax [1]: 0
State 3 respiration driven by succinate at 10XCmax [1]: 0
State 4 respiration driven by glutamate/malate at 10XCmax [1]: 0
State 4 respiration driven by succinate at 10XCmax [1]: 0
State 3 respiration driven by glutamate/malate at 20XCmax [1]: 0
State 3 respiration driven by succinate at 20XCmax [1]: 0
State 4 respiration driven by glutamate/malate at 20XCmax [1]: 0
State 4 respiration driven by succinate at 20XCmax [1]: 0
State 3 respiration driven by glutamate/malate at 30XCmax [1]: 0
State 3 respiration driven by succinate at 30XCmax [1]: 0
State 4 respiration driven by glutamate/malate at 30XCmax [1]: 0
State 4 respiration driven by succinate at 30XCmax [1]: 0
State 3 respiration driven by glutamate/malate at 50XCmax [1]: 0
State 3 respiration driven by succinate at 50XCmax [1]: 0
State 4 respiration driven by glutamate/malate at 50XCmax [1]: 0
State 4 respiration driven by succinate at 50XCmax [1]: 0
State 3 respiration driven by glutamate/malate at 100XCmax [1]: 0
State 3 respiration driven by succinate at 100XCmax [1]: 0
State 4 respiration driven by glutamate/malate at 100XCmax [1]: 0
State 4 respiration driven by succinate at 100XCmax [1]: 0
Swelling 1XCmax [2]: 0
Swelling 2.5XCmax [2]: 0
Swelling 5XCmax [2]: 0
Swelling 10XCmax [2]: 0
Swelling 20XCmax [2]: 0
Swelling 30XCmax [2]: 0
Swelling 50XCmax [2]: 0
Swelling 100XCmax [2]: 0
Cmax ([3]; read-out: Cmax at µM, therapeutic maximal blood concentration): 0.12 µM
Cmax ([3]; therapeutic maximal blood concentration): 61.9 ng/mL
ROS measured by CM-H2DCFDA at 1XCmax [4]: 0
ROS measured by CM-H2DCFDA at 2.5XCmax [4]: 0
ROS measured by CM-H2DCFDA at 5XCmax [4]: 0
ROS measured by CM-H2DCFDA at 10XCmax [4]: 0
ROS measured by CM-H2DCFDA at 20XCmax [4]: 0
ROS measured by CM-H2DCFDA at 30XCmax [4]: 0
ROS measured by CM-H2DCFDA at 50XCmax [4]: 0
ROS measured by CM-H2DCFDA at 100XCmax [4]: 0
RCC III at 100XCmax [5, 10]: 0
RCC IV at 50XCmax [6, 10]: 0
Cytochrome c release 1XCmax [7]: 0
Cytochrome c release 2.5XCmax [7]: 0
Cytochrome c release 5XCmax [7]: 0
Cytochrome c release 10XCmax [7]: 0
Cytochrome c release 20XCmax [7]: 0
Cytochrome c release 30XCmax [7]: 0
Cytochrome c release 50XCmax [7]: 0
Cytochrome c release 100XCmax [7]: 0
DILI potential (based on labeling) ([8]; 1 = DILI positive, 0 = negative, ref product labeling): 1
Labeling for DILI ([8]; in vivo): BBW: fatal DILI
MMP measured by Rhodamine 123 at 1XCmax [9]: 0
MMP measured by Rhodamine 123 at 2.5XCmax [9]: 0
MMP measured by Rhodamine 123 at 5XCmax [9]: 0
MMP measured by Rhodamine 123 at 10XCmax [9]: 0
MMP measured by Rhodamine 123 at 20XCmax [9]: 0
MMP measured by Rhodamine 123 at 30XCmax [9]: 0
MMP measured by Rhodamine 123 at 50XCmax [9]: 0
MMP measured by Rhodamine 123 at 100XCmax [9]: 0
